Reference: PMC4618635 (Pharmacology Research & Perspectives, 2015)

What was measured:
Assay type in all cases: cell-based
[1] = molecular target: hERG potassium channel (Homo sapiens, UniProt Q12809); assay: whole-cell patch clamp, HEK cells stably expressing hERG, tail current block
[2] = molecular target: hERG potassium channel (Homo sapiens, UniProt Q12809, F656A); assay: whole-cell patch clamp, CHO cells transiently expressing F656A hERG, high [K+]
[3] = molecular target: hERG potassium channel (Homo sapiens, UniProt Q12809, Y652A); assay: whole-cell patch clamp, CHO cells transiently expressing Y652A hERG
Chain of hERG potassium channel (Homo sapiens, UniProt Q12809, Y652A) (Q12809 whole entry Y652A): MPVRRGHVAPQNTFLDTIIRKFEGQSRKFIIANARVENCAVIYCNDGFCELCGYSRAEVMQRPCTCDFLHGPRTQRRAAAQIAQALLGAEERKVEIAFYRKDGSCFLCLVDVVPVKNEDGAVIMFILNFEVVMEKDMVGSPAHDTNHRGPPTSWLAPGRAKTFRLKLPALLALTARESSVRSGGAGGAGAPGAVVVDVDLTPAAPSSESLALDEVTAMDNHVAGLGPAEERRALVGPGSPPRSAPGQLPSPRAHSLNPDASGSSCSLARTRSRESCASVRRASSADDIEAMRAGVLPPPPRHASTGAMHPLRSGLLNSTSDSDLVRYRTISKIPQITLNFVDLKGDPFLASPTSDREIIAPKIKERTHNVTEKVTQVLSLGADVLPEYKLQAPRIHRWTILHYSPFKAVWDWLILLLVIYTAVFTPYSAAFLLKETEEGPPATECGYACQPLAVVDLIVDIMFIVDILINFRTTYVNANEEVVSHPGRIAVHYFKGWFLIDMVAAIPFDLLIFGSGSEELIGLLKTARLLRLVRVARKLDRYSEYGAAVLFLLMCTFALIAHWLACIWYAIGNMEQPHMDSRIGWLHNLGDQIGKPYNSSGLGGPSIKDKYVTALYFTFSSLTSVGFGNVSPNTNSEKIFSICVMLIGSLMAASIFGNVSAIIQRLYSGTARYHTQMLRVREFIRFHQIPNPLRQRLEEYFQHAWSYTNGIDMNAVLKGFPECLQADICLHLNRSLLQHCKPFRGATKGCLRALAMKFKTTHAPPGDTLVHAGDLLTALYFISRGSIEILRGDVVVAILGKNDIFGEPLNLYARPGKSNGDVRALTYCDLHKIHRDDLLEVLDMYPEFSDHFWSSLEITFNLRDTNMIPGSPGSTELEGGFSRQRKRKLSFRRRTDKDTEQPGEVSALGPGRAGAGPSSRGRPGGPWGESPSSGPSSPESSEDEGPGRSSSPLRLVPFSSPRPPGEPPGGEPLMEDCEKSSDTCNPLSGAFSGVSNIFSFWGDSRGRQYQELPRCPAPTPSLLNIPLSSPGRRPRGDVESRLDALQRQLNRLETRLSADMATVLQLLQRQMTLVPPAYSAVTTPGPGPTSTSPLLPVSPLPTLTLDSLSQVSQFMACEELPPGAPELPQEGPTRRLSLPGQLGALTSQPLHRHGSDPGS

Chain of hERG potassium channel (Homo sapiens, UniProt Q12809) (Q12809 whole entry): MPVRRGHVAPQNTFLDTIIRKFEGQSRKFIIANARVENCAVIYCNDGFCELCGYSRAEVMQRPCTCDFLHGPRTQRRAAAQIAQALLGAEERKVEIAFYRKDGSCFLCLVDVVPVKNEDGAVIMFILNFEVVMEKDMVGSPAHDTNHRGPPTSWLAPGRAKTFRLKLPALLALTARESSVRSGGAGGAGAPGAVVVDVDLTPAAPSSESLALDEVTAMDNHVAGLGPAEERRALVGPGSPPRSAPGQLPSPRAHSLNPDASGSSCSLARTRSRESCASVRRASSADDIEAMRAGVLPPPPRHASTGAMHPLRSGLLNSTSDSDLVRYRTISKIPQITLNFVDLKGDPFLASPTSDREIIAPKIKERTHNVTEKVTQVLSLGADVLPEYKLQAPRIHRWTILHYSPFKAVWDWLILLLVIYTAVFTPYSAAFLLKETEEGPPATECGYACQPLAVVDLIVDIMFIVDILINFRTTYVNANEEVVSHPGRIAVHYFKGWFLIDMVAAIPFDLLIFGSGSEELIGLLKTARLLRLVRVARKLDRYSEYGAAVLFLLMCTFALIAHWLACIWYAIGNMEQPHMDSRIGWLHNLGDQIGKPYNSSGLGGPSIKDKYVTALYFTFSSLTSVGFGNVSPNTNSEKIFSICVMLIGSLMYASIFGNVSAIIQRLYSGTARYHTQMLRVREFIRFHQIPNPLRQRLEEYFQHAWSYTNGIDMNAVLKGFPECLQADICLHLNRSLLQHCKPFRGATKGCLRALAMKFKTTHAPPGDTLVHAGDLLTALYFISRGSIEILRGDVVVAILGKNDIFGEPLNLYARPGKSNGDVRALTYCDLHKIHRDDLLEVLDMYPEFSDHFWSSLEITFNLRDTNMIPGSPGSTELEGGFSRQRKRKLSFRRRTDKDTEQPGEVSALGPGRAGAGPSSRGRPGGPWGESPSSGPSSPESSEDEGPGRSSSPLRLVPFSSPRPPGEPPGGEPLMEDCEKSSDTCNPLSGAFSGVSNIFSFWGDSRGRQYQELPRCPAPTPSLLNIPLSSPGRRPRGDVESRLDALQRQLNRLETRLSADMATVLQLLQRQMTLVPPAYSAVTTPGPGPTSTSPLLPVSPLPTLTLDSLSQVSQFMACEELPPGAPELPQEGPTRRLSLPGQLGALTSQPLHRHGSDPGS
Chain of hERG potassium channel (Homo sapiens, UniProt Q12809, F656A) (Q12809 whole entry F656A): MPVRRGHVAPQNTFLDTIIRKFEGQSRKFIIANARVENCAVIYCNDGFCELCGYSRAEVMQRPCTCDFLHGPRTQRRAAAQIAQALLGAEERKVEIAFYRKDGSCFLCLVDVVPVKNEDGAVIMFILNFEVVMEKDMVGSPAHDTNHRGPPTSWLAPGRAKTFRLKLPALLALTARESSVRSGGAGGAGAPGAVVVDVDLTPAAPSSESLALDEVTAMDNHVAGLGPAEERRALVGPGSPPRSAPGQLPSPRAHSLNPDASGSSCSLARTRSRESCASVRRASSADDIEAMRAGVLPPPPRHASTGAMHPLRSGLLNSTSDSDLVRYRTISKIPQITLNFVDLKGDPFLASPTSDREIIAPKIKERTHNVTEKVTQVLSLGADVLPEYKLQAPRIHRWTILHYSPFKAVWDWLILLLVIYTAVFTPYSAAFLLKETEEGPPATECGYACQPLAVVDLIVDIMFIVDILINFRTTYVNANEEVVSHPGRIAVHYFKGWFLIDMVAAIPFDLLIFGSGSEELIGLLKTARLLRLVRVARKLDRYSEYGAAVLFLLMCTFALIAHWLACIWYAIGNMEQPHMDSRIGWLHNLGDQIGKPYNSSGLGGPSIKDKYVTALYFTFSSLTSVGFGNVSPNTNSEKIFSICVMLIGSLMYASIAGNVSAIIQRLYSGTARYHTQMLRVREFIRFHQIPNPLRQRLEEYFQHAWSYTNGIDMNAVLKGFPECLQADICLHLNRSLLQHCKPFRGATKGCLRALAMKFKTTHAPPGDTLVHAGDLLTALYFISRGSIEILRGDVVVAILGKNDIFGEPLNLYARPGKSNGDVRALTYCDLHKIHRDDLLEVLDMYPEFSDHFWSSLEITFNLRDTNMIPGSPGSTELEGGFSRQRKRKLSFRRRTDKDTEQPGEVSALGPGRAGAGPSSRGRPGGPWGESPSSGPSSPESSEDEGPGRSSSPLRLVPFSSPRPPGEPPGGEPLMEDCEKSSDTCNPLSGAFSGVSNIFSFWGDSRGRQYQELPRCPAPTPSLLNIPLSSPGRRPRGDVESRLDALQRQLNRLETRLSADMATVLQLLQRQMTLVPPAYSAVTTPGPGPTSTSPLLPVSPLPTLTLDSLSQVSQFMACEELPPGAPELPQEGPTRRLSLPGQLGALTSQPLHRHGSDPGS

Q: `Cc1cccc(C)c1OCC(C)N` (stereo not drawn) [mexiletine] was tested. Which IC50 [1] did it give?
A: 3.7 ± 0.7 µM

Q: What about the IC50 [2] of the same molecule?
A: 111 ± 1.8 µM

Q: What about the IC50 [3] of the same molecule?
A: 41.6 ± 6.6 µM
